Results from article PMC10867212, “Comparative pharmacokinetics of polymyxin B in critically ill elderly patients with extensively drug-resistant gram-negative bacteria infections” (Frontiers in Pharmacology, 2024).
Where two headings read alike, the source gives them in different places. Where a SMILES comes first, the peptide text is derived from it. Bridges are numbered along the chain shown (N, C = ends). [ ]: non-standard residue; d: D form. The star is where a group is joined. X1 = CC[C@H](C)CCCCC(=O)*; Dab = NCC[C@H](N)C(=O)O

How the values were obtained:
[1] = Steady-state plasma pharmacokinetics of intravenous polymyxin B in critically ill patients (non-compartmental analysis); type: in vivo, human; conditions: for Normalized AUCss, 0–24 h: AUC adjusted to a daily dose of 1 mg/kg of TBW; for Cmin / Css, avg (average steady-state plasma concentration) / Cmax / AUC(0-t): HPLC-MS/MS; for Tmax: iv infusion of at least 1 h; for half-life: read-out: Half-time time (converted)
Source text: All adult patients admitted to the participating intensive care unit (ICU) in a teaching hospital between December 2021 and July 2023 were consecutively screened for entry into this prospective observational study. The ICU served a mixed population of medical, surgical, trauma, and neurologic patients. All critically ill patients (≥18 years) were eligible if they received intravenous PMB for more than 3 days (sulfate; PMB injection, Shanghai First Biochemical Pharmaceutical Co., Ltd., China) for the treatment of documented XDR-GNB infections. Exclusion criteria were 1) patients with anuria or who received blood purification therapy or extracorporeal membrane oxygenation during PMB treatment; 2) pregnant women. Informed written consent was obtained from each patient or a legal representative of the family. This study protocol was approved by the human ethics committees in Shandong Provincial Hospital Affiliated to Shandong First Medical University (protocol SWYX: No. 2021-356) and was carried out in accordance with the Declaration of Helsinki (2000) of the World Medical Association.
Patients were enrolled on the first day of intravenous PMB administration. This study continued for 28 days or until discharge from the hospital or death. According to the patient’s age, the enrolled patients were divided into two groups: the elderly group (≥65 years) and the young group (<65 years).
PMB was administrated intravenously with a loading dose of 2.0–2.5 mg/kg and maintenance doses of 1.25–1.5 mg/kg every 12 h, with at least 1 h infusion time. Calculation of both the loading dose and maintenance dose was based on the total body weight (TBW) of the patient. No dose adjustment was performed in patients with renal insufficiency and renal replacement therapy. Concurrent prescription of other potential nephrotoxic drugs, such as vancomycin, aminoglycoside, etc., was avoided as much as possible at any time during PMB treatment in our study. The initiation of PMB treatment as well as the concomitant antibiotics and their duration were at the discretion of the ICU physicians.
For steady-state PK assessment, blood samples were obtained after at least six doses of PMB. In each patient, six to eight blood samples (3 mL) were collected immediately 10 min before the infusion and 30 min and 1, 2, 3, 6, 8, and 12 h after the beginning of infusion in ethylenediaminetetraacetic acid anticoagulant tubes. Blood samples were immediately centrifuged at 3500 g for 10 min, and the plasma samples were collected and stored at −80°C until analysis. The PMB plasma concentrations were quantified by measuring both polymyxin B1 and B2 using validated high-performance liquid chromatography-tandem mass spectrometry.
The primary outcome was steady-state PMB exposure as reflected by AUCss, 0–24 h. Non-compartmental PK analysis was conducted using Phoenix WinNonlin software 8.3 (Certara, United States). The clinical variables were summarized as means with standard deviation for approximately normally distributed continuous variables or medians with interquartile range for non-normally distributed continuous variables and as frequencies and percentages for categorical variables. The normality of all data sets was determined using the Kolmogorov-Smirnov test. Categorical variables were analyzed by the chi-square or Fisher exact test, while continuous variables were analyzed by the two-tailed non-paired Student’s t-test or Mann-Whitney U test. […] All the analyses were performed with the use of the SPSS for Windows statistical program (version 22.0; IBM Corp., Armonk, NY).

[2] = ref Zavascki et al., 2008; Yun et al., 2015; cited from earlier work
Source text: PMB has been reported to accumulate in large quantities in the kidney, much more than in other organs, such as the heart, lungs, and brain. […] Considering that PMB is poorly recovered in urine (less than 1%) ([Zavascki et al., 2008]; [Yun et al., 2015]), it may be filtered from the glomerulus and reabsorbed in the proximal tubule.

[3] = all patients (n = 23), iv 1.25–1.5 mg/kg q12h, steady state, mean ± SD, SD
[4] = elderly group ≥65 years (n = 17), iv 1.25–1.5 mg/kg q12h, steady state, mean ± SD, SD
[5] = young group <65 years (n = 6), iv 1.25–1.5 mg/kg q12h, steady state, mean ± SD, SD

Compound: CC[C@H](C)CCCCC(=O)N[C@@H](CCN)C(=O)N[C@H](C(=O)N[C@@H](CCN)C(=O)N[C@H]1CCNC(=O)[C@H]([C@@H](C)O)NC(=O)[C@H](CCN)NC(=O)[C@H](CCN)NC(=O)[C@H](CC(C)C)NC(=O)[C@@H](Cc2ccccc2)NC(=O)[C@H](CCN)NC1=O)[C@@H](C)O [polymyxin B] (X1-[Dab]T[Dab][Dab][Dab][dF]L[Dab][Dab]T; lactam 4-C)
- Normalized AUCss, 0–24 h ([1]; all patients (n = 23), steady state, mean ± SD, SD): 52.31 ± 28.65 mg·h/L
- Cmin [1, 3]: 2990 ± 1990 ng/mL
- Css, avg (average steady-state plasma concentration) [1, 3]: 4200 ± 2230 ng/mL
- Normalized AUCss, 0–24 h ([1]; elderly group ≥65 years (n = 17), steady state, mean ± SD, SD): 55.23 ± 28.51 mg·h/L
- Cmax [1, 4]: 9230 ± 2840 ng/mL
- Cmin [1, 4]: 3110 ± 1790 ng/mL
- Css, avg (average steady-state plasma concentration) [1, 4]: 4320 ± 2110 ng/mL
- Clearance per TBW ([1]; elderly group ≥65 years (n = 17), per total body weight, iv, steady state, non-compartmental, mean ± SD, SD): 0.6 ± 0.4 mL/min/kg
- AUC(0-t) ([1]; human, elderly group ≥65 years (n = 17), iv 1.25–1.5 mg/kg q12h after loading dose, steady state (≥6 doses), non-compartmental, mean ± SD, SD, read-out: AUCss, 0–12 h): 51800 ± 25300 ng·h/mL
- Cmax ([1]; human, iv, all patients (n = 23), iv 1.25–1.5 mg/kg q12h, steady state, mean ± SD, SD, read-out: Cmax): 9410 ± 3120 ng/mL
- AUC(0-t) ([1]; human, iv, all patients (n = 23), iv 1.25–1.5 mg/kg q12h, steady state, non-compartmental, mean ± SD, SD, read-out: AUCss, 0–24 h): 71900 ± 41800 ng·h/mL
- AUC(0-t) ([1]; human, iv, all patients (n = 23), iv 1.25–1.5 mg/kg q12h after loading dose, steady state (≥6 doses), non-compartmental, mean ± SD, SD, read-out: AUCss, 0–12 h): 50300 ± 27000 ng·h/mL
- Tmax ([1]; human, iv, all patients (n = 23), steady state, mean ± SD, SD): 54.6 ± 29.4 min
- clearance ([1]; human, iv, all patients (n = 23), iv, steady state, non-compartmental, mean ± SD, SD, read-out: Clearance (converted)): 41.5 mL/min
- Vd ([1]; human, iv, all patients (n = 23), iv, steady state, non-compartmental, mean ± SD, SD, read-out: Volume of distribution): 24.7 ± 11.7 L
- clearance ([1]; human, iv, all patients (n = 23), per total body weight, iv, steady state, non-compartmental, mean ± SD, SD, read-out: Clearance per TBW (converted)): 0.6 mL/min/kg
- Vd ([1]; human, iv, all patients (n = 23), per total body weight, iv, steady state, non-compartmental, mean ± SD, SD, read-out: Volume of distribution per TBW): 0.37 ± 0.17 L/kg
- AUC(0-t) ([1]; human, iv, elderly group ≥65 years (n = 17), iv 1.25–1.5 mg/kg q12h, steady state, non-compartmental, mean ± SD, SD, read-out: AUCss, 0–24 h): 76200 ± 41800 ng·h/mL
- Tmax ([1]; human, iv, elderly group ≥65 years (n = 17), steady state, mean ± SD, SD): 56.5 ± 33.6 min
- clearance ([1]; human, iv, elderly group ≥65 years (n = 17), iv, steady state, non-compartmental, mean ± SD, SD, read-out: Clearance (converted)): 39.5 mL/min
- half-life ([1]; human, iv, elderly group ≥65 years (n = 17), iv, steady state, non-compartmental, mean ± SD, SD): 673 ± 323 min
- Vd ([1]; human, iv, elderly group ≥65 years (n = 17), iv, steady state, non-compartmental, mean ± SD, SD, read-out: Volume of distribution): 25.5 ± 12.9 L
- Vd ([1]; human, iv, elderly group ≥65 years (n = 17), per total body weight, iv, steady state, non-compartmental, mean ± SD, SD, read-out: Volume of distribution per TBW): 0.4 ± 0.19 L/kg
- Cmax ([1]; human, iv, young group <65 years (n = 6), iv 1.25–1.5 mg/kg q12h, steady state, mean ± SD, SD, read-out: Cmax): 9890 ± 4070 ng/mL
- AUC(0-t) ([1]; human, iv, young group <65 years (n = 6), iv 1.25–1.5 mg/kg q12h, steady state, non-compartmental, mean ± SD, SD, read-out: AUCss, 0–24 h): 59500 ± 43100 ng·h/mL
- Tmax ([1]; human, iv, young group <65 years (n = 6), steady state, mean ± SD, SD): 49.8 ± 15.6 min
- clearance ([1]; human, iv, young group <65 years (n = 6), iv, steady state, non-compartmental, mean ± SD, SD, read-out: Clearance (converted)): 47.5 mL/min
- half-life ([1]; human, iv, young group <65 years (n = 6), iv, steady state, non-compartmental, mean ± SD, SD): 394 ± 69.6 min
- Vd ([1]; human, iv, young group <65 years (n = 6), iv, steady state, non-compartmental, mean ± SD, SD, read-out: Volume of distribution): 22.3 ± 7.6 L
- clearance ([1]; human, iv, young group <65 years (n = 6), per total body weight, iv, steady state, non-compartmental, mean ± SD, SD, read-out: Clearance per TBW (converted)): 0.617 mL/min/kg
- Vd ([1]; human, iv, young group <65 years (n = 6), per total body weight, iv, steady state, non-compartmental, mean ± SD, SD, read-out: Volume of distribution per TBW): 0.29 ± 0.09 L/kg
- AUCss, 0–24 h (range) ([1]; range over the critically ill patients (n = 23), steady state): 11300 to 151280 ng·h/mL
- Normalized AUCss, 0–24 h ([1]; young group <65 years (n = 6), steady state, mean ± SD, SD): 44.03 ± 30.00 mg·h/L
- Cmin [1, 5]: 2650 ± 2640 ng/mL
- Css, avg (average steady-state plasma concentration) [1, 5]: 3880 ± 2750 ng/mL
- Recovery in urine [2]: less than 1%
